Measurements from the supplement of paper PMC10307832.

How the values were obtained:
Experiment in all cases: relative viability (nuclei count vs DMSO), 5 days (fraction); higher = more cells survive
[1] = compound: CN(C)CC1=CC(=CC=C1)N=C(C2=CC=CC=C2)C3=C(NC4=C3C=CC(=C4)C(=O)N(C)C)O + CC(C)C[C@H](NC(=O)[C@H](Cc1ccccc1)NC(=O)c1cnccn1)B(O)O [Bortezomib] (partner 0.002 µM)
Method in brief: (§1)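 Five library-drug doses in √10 steps were combined with a fixed anchor-drug dose, or a single drug was given alone, by pin tool to lung cancer cell lines in 1536-well plates the day after seeding. Nuclei were stained and counted after 5 days. Relative viability is the nuclei count in treated wells over that in vehicle wells, taken as the median of duplicate plates.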

[2] = compound: CN(C)CC1=CC(=CC=C1)N=C(C2=CC=CC=C2)C3=C(NC4=C3C=CC(=C4)C(=O)N(C)C)O + Cc1nc(NC(=O)N2CCC[C@H]2C(N)=O)sc1-c1ccnc(C(C)(C)C(F)(F)F)c1 [Alpelisib] (partner 2 µM)
Method in brief: as §1

[3] = compound: CN(C)CC1=CC(=CC=C1)N=C(C2=CC=CC=C2)C3=C(NC4=C3C=CC(=C4)C(=O)N(C)C)O + Cc1nc(Nc2ncc(C(=O)Nc3c(C)cccc3Cl)s2)cc(N2CCN(CCO)CC2)n1 [Dasatinib] (partner 0.075 µM)
Method in brief: as §1

[4] = compound: CN(C)CC1=CC(=CC=C1)N=C(C2=CC=CC=C2)C3=C(NC4=C3C=CC(=C4)C(=O)N(C)C)O + CC(=O)c1c(C)c2cnc(Nc3ccc(N4CCNCC4)cn3)nc2n(C2CCCC2)c1=O [Palbociclib] (partner 0.5 µM)
Method in brief: as §1

Row | Cell Line | relative viability ([1]; first compound 0.08 µM) | relative viability ([1]; first compound 0.253 µM) | relative viability ([1]; first compound 0.8 µM) | relative viability ([1]; first compound 2.53 µM) | relative viability ([1]; first compound 8 µM) | relative viability ([2]; first compound 0.08 µM) | relative viability ([2]; first compound 0.253 µM) | relative viability ([2]; first compound 0.8 µM) | relative viability ([2]; first compound 2.53 µM) | relative viability ([2]; first compound 8 µM) | relative viability ([3]; first compound 0.08 µM) | relative viability ([3]; first compound 0.253 µM) | relative viability ([3]; first compound 0.8 µM) | relative viability ([3]; first compound 2.53 µM) | relative viability ([3]; first compound 8 µM) | relative viability ([4]; first compound 0.08 µM) | relative viability ([4]; first compound 0.253 µM) | relative viability ([4]; first compound 0.8 µM) | relative viability ([4]; first compound 2.53 µM) | relative viability ([4]; first compound 8 µM)
1 | NCI-H460 | 1.22 | 1.05 | 1.1 | 0.974 | 1.06 | 0.521 | 0.454 | 0.467 | 0.401 | 0.229 | 0.669 | 0.558 | 0.736 | 0.387 | 0.398 | 0.224 | 0.221 | 0.211 | 0.132 | 0.237
2 | NCI-H2009 | 1.17 | 1.01 | 1.21 | 0.919 | 0.839 | 1.15 | 1.11 | 1.1 | 1.04 | 1.05 | 0.238 | 0.328 | 0.349 | 0.333 | 0.253 | 0.165 | 0.236 | 0.258 | 0.198 | 0.192
3 | NCI-H2085 | 1.07 | 0.953 | 0.993 | 1.01 | 1.07 | 1.03 | 0.973 | 1.05 | 0.949 | 1.06 | 0.226 | 0.285 | 0.257 | 0.252 | 0.278 | 0.452 | 0.492 | 0.476 | 0.5 | 0.559
4 | LOU-NH91 | 0.493 | 0.472 | 0.447 | 0.533 | 0.472 | 0.743 | 0.72 | 0.577 | 0.718 | 0.696 | 0.572 | 0.552 | 0.485 | 0.539 | 0.503 | 0.57 | 0.53 | 0.524 | 0.52 | 0.598
5 | NCI-H1734 | 0.954 | 0.868 | 0.92 | 0.815 | 0.78 | 0.624 | 0.71 | 0.643 | 0.693 | 0.5 | 0.473 | 0.46 | 0.441 | 0.394 | 0.39 | 0.39 | 0.353 | 0.346 | 0.31 | 0.31
6 | NCI-H1792 | 0.641 | 0.911 | 0.906 | 0.933 | 0.911 | 0.689 | 0.588 | 0.669 | 0.644 | 0.555 | 0.903 | 0.856 | 0.851 | 0.646 | 0.598 | 0.666 | 0.638 | 0.673 | 0.641 | 0.665
7 | H3255 | 0.779 | 0.893 | 0.752 | 0.822 | 0.94 | 0.781 | 0.754 | 0.635 | 0.635 | 0.84 | 0.342 | 0.337 | 0.316 | 0.381 | 0.339 | 0.304 | 0.331 | 0.336 | 0.334 | 0.343
8 | NCI-H2087 | 0.656 | 0.785 | 0.986 | 0.816 | 1.03 | 1.14 | 1.24 | 1.15 | 1.15 | 0.992 | 0.953 | 0.835 | 0.914 | 0.794 | 0.793 | 0.233 | 0.236 | 0.214 | 0.289 | 0.263
9 | BEN | 0.951 | 0.679 | 0.794 | 0.876 | 0.717 | 1.02 | 0.947 | 1.08 | 0.928 | 0.82 | 0.307 | 0.284 | 0.396 | 0.487 | 0.336 | 0.49 | 0.485 | 0.492 | 0.467 | 0.454
10 | COR-L23 | 0.99 | 1.06 | 0.991 | 0.958 | 0.904 | 0.796 | 0.757 | 0.818 | 0.632 | 0.575 | 0.54 | 0.469 | 0.596 | 0.423 | 0.566 | 0.321 | 0.329 | 0.379 | 0.269 | 0.326
11 | ABC-1 | 0.324 | 0.312 | 0.264 | 0.274 | 0.316 | 1.14 | 1.03 | 0.957 | 0.896 | 1.09 | 0.619 | 0.617 | 0.557 | 0.605 | 0.577 | 0.775 | 0.795 | 0.588 | 0.545 | 0.569
12 | HCC-366 | 0.949 | 1.01 | 1.03 | 0.906 | 0.9 | 0.397 | 0.386 | 0.42 | 0.393 | 0.344 | 0.71 | 0.8 | 0.592 | 0.502 | 0.564 | 0.406 | 0.364 | 0.404 | 0.412 | 0.341
13 | SK-LU-1 | 0.94 | 1.17 | 1.16 | 1.13 | 1.01 | 0.883 | 1.01 | 0.992 | 0.87 | 0.597 | 0.185 | 0.199 | 0.188 | 0.196 | 0.163 | 0.335 | 0.363 | 0.34 | 0.362 | 0.369
